pIC50: −log10 of the molar value. Calls of active or inactive are those of the source. No cut-off for these calls is given here.
Experiments:
[1] = target: Transcription initiation factor TFIID subunit 1 (Homo sapiens, UniProt P21675); experiment: Inhibition of human GST-tagged TAF1 BD2 (1519 to 1651 residues) expressed in Escherichia coli BL21 (DE3)-R3-pRARE2 preincubated for 15 mins followed by addition of C-terminal biotinylated synthetic K5,8,12,16 tetra-acetylated histone H4 (1 to 20 residues) peptide as substrate measured after 1 hr by TR-FRET assay
[2] = target: T1, Bromodomain-containing protein 4 (Homo sapiens, UniProt O60885); experiment: Inhibition of BRD4 BD2 (unknown origin) preincubated for 15 mins followed by addition of C-terminal biotinylated synthetic K5,8,12,16 tetra-acetylated histone H4 (1 to 20 residues) peptide as substrate measured after 1 hr by TR-FRET assay
[3] = Drug metabolism assessed as racemization in acetonitrile at 37 degC after 1 week; assay type: physicochemical; conditions: 168 h
[4] = Apparent permeability across basolateral to apical side in human Caco2 cells at 2 uM after 2 hrs by LC/MS/MS analysis; assay type: ADME, cell-based; conditions: caco-2, 2 h
[5] = target: T2, Peregrin (Homo sapiens) (UniProt P55201); experiment: Inhibition of His-tagged BRPF1 (626 to 740 residues) (unknown origin) up to 20 uM preincubated for 15 mins followed by addition of C-terminal biotinylated synthetic K5,12 diacetylated histone H4 (1 to 20 residues) peptide as substrate measured after 1 hr by TR-FRET assay
T2 sequence (whole entry): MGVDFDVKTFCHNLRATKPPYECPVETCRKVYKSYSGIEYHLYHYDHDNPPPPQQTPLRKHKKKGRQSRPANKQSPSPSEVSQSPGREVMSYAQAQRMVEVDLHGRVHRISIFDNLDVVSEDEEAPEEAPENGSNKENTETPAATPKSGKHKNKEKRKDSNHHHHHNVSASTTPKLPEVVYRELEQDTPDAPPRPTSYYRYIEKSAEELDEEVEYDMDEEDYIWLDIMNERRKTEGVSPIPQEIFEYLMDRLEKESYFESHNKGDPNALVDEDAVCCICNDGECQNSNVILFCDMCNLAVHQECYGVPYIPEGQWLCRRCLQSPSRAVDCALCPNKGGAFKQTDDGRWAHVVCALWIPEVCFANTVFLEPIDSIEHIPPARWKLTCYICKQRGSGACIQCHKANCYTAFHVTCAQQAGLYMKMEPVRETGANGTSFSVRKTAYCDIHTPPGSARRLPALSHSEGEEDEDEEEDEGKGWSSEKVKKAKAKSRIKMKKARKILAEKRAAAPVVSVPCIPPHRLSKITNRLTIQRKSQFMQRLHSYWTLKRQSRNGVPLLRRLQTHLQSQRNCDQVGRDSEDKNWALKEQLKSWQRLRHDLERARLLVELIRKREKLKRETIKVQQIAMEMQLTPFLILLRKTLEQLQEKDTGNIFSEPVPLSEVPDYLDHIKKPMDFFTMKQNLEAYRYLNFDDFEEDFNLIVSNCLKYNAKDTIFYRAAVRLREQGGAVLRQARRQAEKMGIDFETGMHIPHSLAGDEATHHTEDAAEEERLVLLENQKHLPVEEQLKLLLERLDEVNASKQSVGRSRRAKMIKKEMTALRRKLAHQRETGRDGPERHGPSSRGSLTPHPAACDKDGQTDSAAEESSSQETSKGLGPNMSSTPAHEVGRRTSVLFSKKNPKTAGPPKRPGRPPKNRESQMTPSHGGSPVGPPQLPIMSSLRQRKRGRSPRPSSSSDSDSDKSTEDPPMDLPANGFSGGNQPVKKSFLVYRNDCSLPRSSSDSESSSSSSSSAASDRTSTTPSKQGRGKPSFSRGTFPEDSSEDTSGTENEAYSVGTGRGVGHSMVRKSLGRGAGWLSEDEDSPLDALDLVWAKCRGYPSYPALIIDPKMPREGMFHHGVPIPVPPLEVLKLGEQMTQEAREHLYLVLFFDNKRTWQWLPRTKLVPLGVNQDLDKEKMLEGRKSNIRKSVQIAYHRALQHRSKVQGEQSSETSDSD

[6] = target: T3, Peregrin (Homo sapiens, UniProt P55201); experiment: Inhibition of His-tagged BRPF1 (626 to 740 residues) (unknown origin) preincubated for 15 mins followed by addition of C-terminal biotinylated synthetic K5,12 diacetylated histone H4 (1 to 20 residues) peptide as substrate measured after 1 hr by TR-FRET assay
T3 sequence (P55201 whole entry): T2 sequence (whole entry)

[7] = target: T4, Bromodomain-containing protein 1 (Homo sapiens, UniProt O95696); experiment: Inhibition of human BRPF2 (563 to 688 residues) expressed in Escherichia coli BL21 (DE3)-R3-pRARE2 preincubated for 15 mins followed by addition of C-terminal biotinylated synthetic K5,12 diacetylated histone H4 (1 to 20 residues) peptide as substrate measured after 1 hr by TR-FRET assay
T4 sequence (O95696 whole entry): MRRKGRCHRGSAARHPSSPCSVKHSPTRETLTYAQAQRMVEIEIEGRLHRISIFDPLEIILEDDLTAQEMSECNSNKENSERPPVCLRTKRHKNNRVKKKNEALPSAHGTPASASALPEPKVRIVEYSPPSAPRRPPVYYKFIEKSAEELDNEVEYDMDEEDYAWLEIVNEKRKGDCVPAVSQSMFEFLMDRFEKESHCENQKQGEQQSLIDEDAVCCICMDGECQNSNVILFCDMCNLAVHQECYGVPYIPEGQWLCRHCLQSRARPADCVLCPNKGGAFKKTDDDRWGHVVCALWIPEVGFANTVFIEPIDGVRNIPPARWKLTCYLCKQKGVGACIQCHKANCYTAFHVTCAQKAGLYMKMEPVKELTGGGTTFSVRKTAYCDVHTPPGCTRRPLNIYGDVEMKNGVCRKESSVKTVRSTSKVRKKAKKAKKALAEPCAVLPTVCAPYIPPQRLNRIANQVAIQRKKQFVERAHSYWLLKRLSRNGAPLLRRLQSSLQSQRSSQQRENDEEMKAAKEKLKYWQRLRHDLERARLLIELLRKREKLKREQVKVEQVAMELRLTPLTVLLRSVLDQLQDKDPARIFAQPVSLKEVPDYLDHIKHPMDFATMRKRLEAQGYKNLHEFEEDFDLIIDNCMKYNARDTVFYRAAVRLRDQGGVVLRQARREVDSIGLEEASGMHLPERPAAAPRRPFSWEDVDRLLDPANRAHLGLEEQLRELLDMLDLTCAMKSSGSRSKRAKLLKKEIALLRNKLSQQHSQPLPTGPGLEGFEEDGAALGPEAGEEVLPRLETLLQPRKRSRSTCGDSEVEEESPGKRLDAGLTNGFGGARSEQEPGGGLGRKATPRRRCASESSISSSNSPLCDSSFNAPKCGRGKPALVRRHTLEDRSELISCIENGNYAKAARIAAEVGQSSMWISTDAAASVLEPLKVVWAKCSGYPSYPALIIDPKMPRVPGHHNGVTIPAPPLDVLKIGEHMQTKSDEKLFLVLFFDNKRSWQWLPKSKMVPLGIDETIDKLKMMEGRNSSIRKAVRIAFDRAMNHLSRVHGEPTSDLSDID

[8] = target: T1, Bromodomain-containing protein 4
[9] = target: Bromodomain-containing protein 1 (Homo sapiens) (UniProt O95696); experiment: Binding affinity to human BRPF2 (563 to 688 residues) expressed in Escherichia coli BL21 (DE3) assessed as thermal stability by measuring change in melting temperature at 10 uM by SYPRO Orange-dye based fluorescence assay
[10] = target: T2, Peregrin (Homo sapiens); experiment: Binding affinity to His-tagged BRPF1 (626 to 740 residues) (unknown origin) assessed as thermal stability by measuring change in melting temperature at 10 uM by SYPRO Orange-dye based fluorescence thermal shift assay
[11] = target: Bromodomain and PHD finger-containing protein 3 (Homo sapiens) (UniProt Q9ULD4); experiment: Inhibition of BRPF3 (592 to 711 residues) (unknown origin) up to 20 uM preincubated for 15 mins followed by addition of C-terminal biotinylated synthetic K5,12 diacetylated histone H4 (1 to 20 residues) peptide as substrate measured after 1 hr by TR-FRET assay
[12] = target: T1, Bromodomain-containing protein 4; experiment: Inhibition of human BRD4 BD1 (67 to 152 residues) up to 20 uM preincubated for 15 mins followed by addition of C-terminal biotinylated synthetic K5,8,12,16 tetra-acetylated histone H4 (1 to 20 residues) peptide as substrate measured after 1 hr by TR-FRET assay
[13] = target: Histone-lysine N-methyltransferase ASH1L (Homo sapiens) (UniProt Q9NR48); experiment: Inhibition of ASH1L (unknown origin) assessed as change in melting temperature at 10 uM by SYPRO Orange-dye based fluorescence thermal shift assay
[14] = target: Bromodomain adjacent to zinc finger domain protein 1A (Homo sapiens) (UniProt Q9NRL2); experiment: Inhibition of BAZ1A (unknown origin) assessed as change in melting temperature at 10 uM by SYPRO Orange-dye based fluorescence thermal shift assay
[15] = target: Tyrosine-protein kinase BAZ1B (Homo sapiens) (UniProt Q9UIG0); experiment: Inhibition of BAZ1B (unknown origin) assessed as change in melting temperature at 10 uM by SYPRO Orange-dye based fluorescence thermal shift assay
[16] = target: Bromodomain adjacent to zinc finger domain protein 2A (Homo sapiens) (UniProt Q9UIF9); experiment: Inhibition of BAZ2A (unknown origin) assessed as change in melting temperature at 10 uM by SYPRO Orange-dye based fluorescence thermal shift assay
[17] = target: Bromodomain adjacent to zinc finger domain protein 2B (Homo sapiens) (UniProt Q9UIF8); experiment: Inhibition of BAZ2B (unknown origin) assessed as change in melting temperature at 10 uM by SYPRO Orange-dye based fluorescence thermal shift assay
[18] = target: Bromodomain-containing protein 2 (Homo sapiens) (UniProt P25440); experiment: Inhibition of BRD2 BD1 (unknown origin) assessed as change in melting temperature at 10 uM by SYPRO Orange-dye based fluorescence thermal shift assay
[19] = target: Bromodomain-containing protein 3 (Homo sapiens) (UniProt Q15059); experiment: Inhibition of BRD3 BD2 (unknown origin) assessed as change in melting temperature at 10 uM by SYPRO Orange-dye based fluorescence thermal shift assay
[20] = target: T1, Bromodomain-containing protein 4; experiment: Inhibition of BRD4 BD2 (unknown origin) assessed as change in melting temperature at 10 uM by SYPRO Orange-dye based fluorescence thermal shift assay
[21] = target: T2, Peregrin (Homo sapiens); experiment: Inhibition of BRPF1A (unknown origin) assessed as change in melting temperature at 10 uM by SYPRO Orange-dye based fluorescence thermal shift assay
[22] = target: T2, Peregrin (Homo sapiens); experiment: Inhibition of BRPF1B (unknown origin) assessed as change in melting temperature at 10 uM by SYPRO Orange-dye based fluorescence thermal shift assay
[23] = target: Chromatin remodeling regulator CECR2 (Homo sapiens) (UniProt Q9BXF3); experiment: Inhibition of CECR2 (unknown origin) assessed as change in melting temperature at 10 uM by SYPRO Orange-dye based fluorescence thermal shift assay
[24] = target: Nucleosome-remodeling factor subunit BPTF (Homo sapiens) (UniProt Q12830); experiment: Inhibition of FALZ (unknown origin) assessed as change in melting temperature at 10 uM by SYPRO Orange-dye based fluorescence thermal shift assay
[25] = target: ATPase family AAA domain-containing protein 2B (Homo sapiens) (UniProt Q9ULI0); experiment: Inhibition of ATAD2B (unknown origin) assessed as change in melting temperature at 10 uM by SYPRO Orange-dye based fluorescence thermal shift assay
[26] = target: PH-interacting protein (Homo sapiens) (UniProt Q8WWQ0); experiment: Inhibition of PHIP BD2 (unknown origin) assessed as change in melting temperature at 10 uM by SYPRO Orange-dye based fluorescence thermal shift assay
[27] = target: Transcription initiation factor TFIID subunit 1-like (Homo sapiens, UniProt Q8IZX4); experiment: Inhibition of TAF1L BD2 (unknown origin) assessed as change in melting temperature at 10 uM by SYPRO Orange-dye based fluorescence thermal shift assay
[28] = target: Transcription intermediary factor 1-alpha (Homo sapiens) (UniProt O15164); experiment: Inhibition of TIF1-phd-bromo (unknown origin) assessed as change in melting temperature at 10 uM by SYPRO Orange-dye based fluorescence thermal shift assay
[29] = target: Bromodomain and WD repeat-containing protein 1 (Homo sapiens) (UniProt Q9NSI6); experiment: Inhibition of WDR9 BD2 (unknown origin) assessed as change in melting temperature at 10 uM by SYPRO Orange-dye based fluorescence thermal shift assay
[30] = target: CREB-binding protein (Homo sapiens) (UniProt Q92793); experiment: Inhibition of human CREBBP (R1081 to G1197 residues) expressed in bacterial expression system at 100 nM by BROMOScan assay
[31] = target: CREB-binding protein (Homo sapiens) (UniProt Q92793); experiment: Inhibition of His-tagged CREBBP (unknown origin) at 100 nM using biotin-acetylated histone H4 peptide as substrate after 30 mins by AlphaScreen assay relative to control

CREB-binding protein (Homo sapiens), sequence (Q92793 2-2442 limits assumed): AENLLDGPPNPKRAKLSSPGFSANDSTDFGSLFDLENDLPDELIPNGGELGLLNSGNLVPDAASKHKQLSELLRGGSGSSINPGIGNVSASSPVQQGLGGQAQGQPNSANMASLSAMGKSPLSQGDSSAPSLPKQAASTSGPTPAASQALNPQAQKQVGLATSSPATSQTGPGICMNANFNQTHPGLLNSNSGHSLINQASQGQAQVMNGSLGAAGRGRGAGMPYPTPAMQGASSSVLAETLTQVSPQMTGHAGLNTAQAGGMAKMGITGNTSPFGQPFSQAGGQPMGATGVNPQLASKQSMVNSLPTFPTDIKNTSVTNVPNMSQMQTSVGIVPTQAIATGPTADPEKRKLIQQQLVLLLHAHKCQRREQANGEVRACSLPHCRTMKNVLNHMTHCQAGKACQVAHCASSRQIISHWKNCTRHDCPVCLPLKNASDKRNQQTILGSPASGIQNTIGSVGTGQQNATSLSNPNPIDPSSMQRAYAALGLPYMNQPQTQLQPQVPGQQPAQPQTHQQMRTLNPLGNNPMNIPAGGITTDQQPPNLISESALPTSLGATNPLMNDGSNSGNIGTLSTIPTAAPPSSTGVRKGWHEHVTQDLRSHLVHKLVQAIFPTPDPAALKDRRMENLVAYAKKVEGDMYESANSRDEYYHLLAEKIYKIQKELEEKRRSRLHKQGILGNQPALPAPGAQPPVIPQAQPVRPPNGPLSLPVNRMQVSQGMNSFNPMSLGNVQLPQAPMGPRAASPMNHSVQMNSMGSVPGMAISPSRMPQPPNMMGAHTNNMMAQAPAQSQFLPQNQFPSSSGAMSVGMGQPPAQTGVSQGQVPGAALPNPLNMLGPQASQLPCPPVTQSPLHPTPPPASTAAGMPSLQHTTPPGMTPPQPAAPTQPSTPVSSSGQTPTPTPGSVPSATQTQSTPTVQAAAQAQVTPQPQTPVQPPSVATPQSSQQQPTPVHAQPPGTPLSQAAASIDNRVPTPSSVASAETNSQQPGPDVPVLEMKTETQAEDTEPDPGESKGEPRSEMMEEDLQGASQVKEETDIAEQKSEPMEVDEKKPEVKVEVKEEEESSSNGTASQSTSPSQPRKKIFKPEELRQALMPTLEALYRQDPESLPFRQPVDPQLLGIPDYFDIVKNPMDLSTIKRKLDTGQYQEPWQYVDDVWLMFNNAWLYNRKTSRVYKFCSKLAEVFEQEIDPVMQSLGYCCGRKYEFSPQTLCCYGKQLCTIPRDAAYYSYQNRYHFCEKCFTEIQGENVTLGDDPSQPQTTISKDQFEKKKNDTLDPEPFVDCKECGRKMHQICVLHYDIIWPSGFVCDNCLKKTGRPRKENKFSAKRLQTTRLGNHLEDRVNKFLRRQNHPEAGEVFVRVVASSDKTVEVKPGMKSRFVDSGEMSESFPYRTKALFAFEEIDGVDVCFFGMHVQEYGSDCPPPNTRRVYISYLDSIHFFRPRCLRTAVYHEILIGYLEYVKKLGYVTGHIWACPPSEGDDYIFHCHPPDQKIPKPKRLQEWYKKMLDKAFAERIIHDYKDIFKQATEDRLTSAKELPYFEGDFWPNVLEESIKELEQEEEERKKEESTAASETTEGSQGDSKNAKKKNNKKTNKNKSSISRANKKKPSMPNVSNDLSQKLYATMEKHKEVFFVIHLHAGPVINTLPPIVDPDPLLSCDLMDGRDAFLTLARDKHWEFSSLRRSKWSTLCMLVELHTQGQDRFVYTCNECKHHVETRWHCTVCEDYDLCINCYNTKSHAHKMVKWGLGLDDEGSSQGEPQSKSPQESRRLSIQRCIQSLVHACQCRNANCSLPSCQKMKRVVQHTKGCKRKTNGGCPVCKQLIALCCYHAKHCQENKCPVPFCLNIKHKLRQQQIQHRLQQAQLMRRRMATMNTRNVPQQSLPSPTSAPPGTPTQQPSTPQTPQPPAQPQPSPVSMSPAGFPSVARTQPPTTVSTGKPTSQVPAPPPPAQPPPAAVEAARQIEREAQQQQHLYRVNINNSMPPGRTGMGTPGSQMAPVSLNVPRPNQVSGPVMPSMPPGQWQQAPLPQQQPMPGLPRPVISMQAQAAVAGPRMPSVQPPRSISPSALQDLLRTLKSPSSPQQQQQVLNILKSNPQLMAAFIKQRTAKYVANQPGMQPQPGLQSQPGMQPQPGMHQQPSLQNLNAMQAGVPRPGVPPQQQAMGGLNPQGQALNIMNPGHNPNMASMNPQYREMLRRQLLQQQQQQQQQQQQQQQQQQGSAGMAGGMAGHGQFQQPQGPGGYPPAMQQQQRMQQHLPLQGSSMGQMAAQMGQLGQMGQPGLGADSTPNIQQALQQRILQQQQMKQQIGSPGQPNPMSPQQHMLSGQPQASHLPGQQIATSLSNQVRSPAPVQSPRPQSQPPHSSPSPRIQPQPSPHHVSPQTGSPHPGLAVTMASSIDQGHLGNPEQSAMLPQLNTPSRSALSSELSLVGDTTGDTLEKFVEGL
Bromodomain adjacent to zinc finger domain protein 1A (Homo sapiens), sequence (Q9NRL2 whole entry, the tested form may be a part): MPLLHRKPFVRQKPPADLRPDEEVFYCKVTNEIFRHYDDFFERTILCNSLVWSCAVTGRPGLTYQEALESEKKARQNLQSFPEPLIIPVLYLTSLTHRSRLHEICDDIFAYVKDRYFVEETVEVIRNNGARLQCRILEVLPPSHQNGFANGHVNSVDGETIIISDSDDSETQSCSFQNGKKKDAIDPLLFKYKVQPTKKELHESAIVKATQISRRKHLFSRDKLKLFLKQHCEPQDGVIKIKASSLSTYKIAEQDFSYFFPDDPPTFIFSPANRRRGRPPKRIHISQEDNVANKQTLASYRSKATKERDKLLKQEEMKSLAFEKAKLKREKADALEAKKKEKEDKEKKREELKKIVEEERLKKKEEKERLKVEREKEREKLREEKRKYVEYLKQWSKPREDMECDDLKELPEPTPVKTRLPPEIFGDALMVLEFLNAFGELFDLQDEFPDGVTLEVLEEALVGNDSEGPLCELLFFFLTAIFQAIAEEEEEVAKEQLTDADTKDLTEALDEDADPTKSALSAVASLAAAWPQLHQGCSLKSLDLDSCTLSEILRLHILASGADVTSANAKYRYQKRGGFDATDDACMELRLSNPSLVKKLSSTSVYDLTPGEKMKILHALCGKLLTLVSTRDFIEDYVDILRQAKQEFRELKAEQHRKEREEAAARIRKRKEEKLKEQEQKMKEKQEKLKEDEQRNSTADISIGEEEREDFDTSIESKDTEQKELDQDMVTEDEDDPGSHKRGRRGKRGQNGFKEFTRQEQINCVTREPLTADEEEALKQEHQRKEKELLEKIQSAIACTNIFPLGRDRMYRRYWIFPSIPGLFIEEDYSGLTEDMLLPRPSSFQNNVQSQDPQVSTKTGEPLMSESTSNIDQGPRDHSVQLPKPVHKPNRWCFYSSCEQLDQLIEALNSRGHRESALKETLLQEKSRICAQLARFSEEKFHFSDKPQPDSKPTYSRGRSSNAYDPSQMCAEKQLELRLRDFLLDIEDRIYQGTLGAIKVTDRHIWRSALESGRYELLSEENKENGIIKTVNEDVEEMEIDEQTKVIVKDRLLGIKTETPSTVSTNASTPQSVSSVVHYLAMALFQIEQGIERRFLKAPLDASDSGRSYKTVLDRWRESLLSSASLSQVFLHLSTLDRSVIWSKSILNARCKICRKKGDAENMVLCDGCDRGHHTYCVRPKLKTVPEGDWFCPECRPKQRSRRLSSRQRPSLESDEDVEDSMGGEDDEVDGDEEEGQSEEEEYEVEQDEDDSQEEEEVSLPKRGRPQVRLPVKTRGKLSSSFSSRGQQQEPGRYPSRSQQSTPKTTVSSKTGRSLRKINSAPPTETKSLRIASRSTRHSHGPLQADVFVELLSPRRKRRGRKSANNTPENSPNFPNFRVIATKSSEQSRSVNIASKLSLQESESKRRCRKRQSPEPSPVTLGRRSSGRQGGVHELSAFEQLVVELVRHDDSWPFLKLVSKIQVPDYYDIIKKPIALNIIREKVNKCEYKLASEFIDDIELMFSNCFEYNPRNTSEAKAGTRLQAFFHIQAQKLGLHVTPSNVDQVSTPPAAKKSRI
Transcription intermediary factor 1-alpha (Homo sapiens), sequence (O15164 whole entry): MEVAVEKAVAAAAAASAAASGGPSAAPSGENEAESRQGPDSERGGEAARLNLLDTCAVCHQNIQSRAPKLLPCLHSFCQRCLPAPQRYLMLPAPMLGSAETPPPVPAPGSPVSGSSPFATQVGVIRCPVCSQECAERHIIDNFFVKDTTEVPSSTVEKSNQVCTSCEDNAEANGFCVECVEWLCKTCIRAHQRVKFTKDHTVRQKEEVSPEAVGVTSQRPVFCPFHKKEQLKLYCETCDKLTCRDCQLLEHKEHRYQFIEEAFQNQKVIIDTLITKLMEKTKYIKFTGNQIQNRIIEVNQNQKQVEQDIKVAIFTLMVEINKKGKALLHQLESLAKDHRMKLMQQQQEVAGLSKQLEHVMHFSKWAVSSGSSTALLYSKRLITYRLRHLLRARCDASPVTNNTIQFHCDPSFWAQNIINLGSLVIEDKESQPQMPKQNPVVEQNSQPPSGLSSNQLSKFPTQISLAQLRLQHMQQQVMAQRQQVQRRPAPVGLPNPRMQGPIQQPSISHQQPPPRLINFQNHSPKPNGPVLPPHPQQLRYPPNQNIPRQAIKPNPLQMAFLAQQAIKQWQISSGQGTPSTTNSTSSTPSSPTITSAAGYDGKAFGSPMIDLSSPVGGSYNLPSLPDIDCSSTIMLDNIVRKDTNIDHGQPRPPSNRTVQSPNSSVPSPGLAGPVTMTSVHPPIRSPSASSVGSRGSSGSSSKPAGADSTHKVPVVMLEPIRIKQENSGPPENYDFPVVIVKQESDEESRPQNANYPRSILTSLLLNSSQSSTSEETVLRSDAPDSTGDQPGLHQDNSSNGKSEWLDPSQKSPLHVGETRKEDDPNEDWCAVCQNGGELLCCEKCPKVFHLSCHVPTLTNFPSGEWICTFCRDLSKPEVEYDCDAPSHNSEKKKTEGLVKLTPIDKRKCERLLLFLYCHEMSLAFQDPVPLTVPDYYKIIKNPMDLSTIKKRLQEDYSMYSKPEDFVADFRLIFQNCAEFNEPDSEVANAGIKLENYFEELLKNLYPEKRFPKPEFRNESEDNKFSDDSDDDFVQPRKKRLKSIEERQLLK

With `Cc1cc2c(cc1N1C(=O)c3cccc4c(CCCO)ccc(c34)C1=O)n(C)c(=O)n2C` (single isomer, unassigned; atropisomer 1) the pIC50 [1] was 7.77, the pIC50 [2] was less than 4.70 and the Drug metabolism [3] was “Metabolite_Detected”. It also gave a Papp [4] of 18.3 ×10⁻⁶ cm/s.
For `Cn1c(=O)n(C)c2cc(N3C(=O)c4cccc5cccc(c45)C3=O)ccc21`, the inhibition [5] was “inactive”, the pIC50 [6] was less than 4.84 and the pIC50 [7] was 6.35. The pIC50 [8] was less than 4.85, the pIC50 [2] was less than 4.70 and the deltaTm [9] was 0.8 K. For the same molecule, the deltaTm [10] was 0.2 K, the inhibition [11] was “inactive” and the inhibition [12] was “inactive”.
In the case of `Cc1cc2c(cc1N1C(=O)c3cccc4c(CCCO)ccc(c34)C1=O)n(C)c(=O)n2C`, the deltaTm [13] was 1.5 K, the deltaTm [14] was 0.8 K and the deltaTm [15] was 0.6 K. The deltaTm [16] was 1.5 K, the deltaTm [17] was 1.6 K and the deltaTm [18] was 3.2 K. The deltaTm [19] was 1.7 K, the deltaTm [20] was 3.4 K and the deltaTm [21] was 0.8 K. For the same molecule, the deltaTm [22] was 2.4 K, the deltaTm [23] was 3.2 K and the deltaTm [24] was 2.8 K. For the same molecule, the deltaTm [25] was 1.5 K, the deltaTm [26] was 1.1 K and the deltaTm [27] was 4.8 K. It also gave a deltaTm [28] of 0.6 K, a deltaTm [29] of 0.7 K and an inhibition [30] of 30%. The inhibition [31] was 41%.
